# Literature values, collected in paper PMC12315921 (Translational Vision Science & Technology, 2025).
# Where two headings read alike, the source gives them in different places.
# Legend:
# [1] = test system: PKM2
# [2] = test system: PKM2; remark: listed apart in the source
Kd [2],SMILES,AC50 of PK activation ([1]; in the absence of FBP),AC50 of PK activation ([1]; in the presence of FBP),AC50 [2]
,Nc1cccc(S(=O)(=O)N2CCCN(S(=O)(=O)c3ccc4c(c3)OCCO4)CC2)c1 [DASA-58],micromolar,low nanomolar,
nanomolar range,"O=C(COP(=O)(O)O)[C@@H](O)[C@H](O)[C@H](O)COP(=O)(O)O [FBP, fructose 1,6-biphosphate]",,,nanomolar range
